Results as given in patent US20220168442A1, “ARTIFICIAL T-CELL STIMULATING MATRIX FOR IMMUNOTHERAPY” (The Johns Hopkins University, priority 2019, published 2022).
Ends that are not written are not given here.

Legend:
Assay type in all cases: cell-based, mouse
[1] = system: B6 CD8+ T cells; experiment: CD8+ T cell fold expansion after seven days of stimulation on aTM; settings: added to culture on 0.5-kPa aTM; 100 μM; same amount of stimulatory ligand
Experimental: Murine cells were obtained from adult mouse lymph nodes and spleens. Obtained cells were treated with ACK lysing buffer to lyse red blood cells and filtered through cell strainers to isolate splenocytes. PBMCs from healthy donors were isolated by Ficoll-Paque PLUS gradient centrifugation (GE Healthcare). CD8+T lymphocytes were then isolated from splenocytes or PBMCs by negative selection using CD8+ isolation kits and magnetic columns from Miltenyi Biotech (Auburn, Calif., USA) according to the manufacturer's protocol. […]
CD8+ T cells were isolated as previous described and resuspended in 1 mL T cell culture media. […] The CFSE fluorescence intensity was measured using BD FACSCALIBUR™ flow cytometer. Cell proliferation was analyzed using FLOWJO™ with diluted CFSE fluorescence peaks signifying population after each round of cell division. A subset of the cells were allowed to expand for 7 days and viable cells were counted with a hemocytometer to determine fold expansion. […]

[2] = system: PMEL CD8+ T cells; experiment: aTM with laminin or cyclic RGD attached, T cell expansion; settings: laminin 20 μg/mL or cyclic RGD 100 μM incorporated into aTM
Experimental: HA solution was prepared as previously described. Anti-CD3 and anti-CD28 antibodies were purchased respectively from BioXCell (145-2C11; West Lebanon, N.H., USA) and BioLegend (37.51; San Diego, Calif., USA). […] PEGDA crosslinker was added to reduced MHC-Ig dimers, anti-CD3 and anti-CD28 antibody solutions to a final concentration of 0.5% PEGDA for preparation for crosslinking. Prior to hydrogel formation, MHC-Ig dimers or anti-CD3 antibodies and anti-CD28 co-stimulatory signals with 0.5% PEGDA were added to the HA solution to directly attach signals on HA through thiol-diene chemistry. The HA-antibody solution was then mixed with PEGDA crosslinker at a 4:1 ratio to be plated. The aTM was allowed to form within flat-bottomed tissue culture plates to form a complete layer for at least 1 hour prior to washing 3 times with 1×PBS to remove any unbound stimulatory signal, and cells were subsequently plated. To investigate the effects of extracellular matrix (ECM) protein attachment, cyclic RGD (CCRRGDWLC (SEQ ID NO: 1)), which was synthesized by solid phase methods as described previously (Li et al., Stem Cells Transl. Med., 3: 662-670 (2014)), or laminin (ThermoFisher) were added to make a HA solution with protein concentration of 100 μM and 20 μg/mL, respectively, prior to the hydrogel formation. […]

[3] = system: murine CD8+ T cells; experiment: aLN ex vivo CD8+ T cell expansion and phenotype, day 7
Experimental: Artificial lymph nodes (aLNs) were synthesized by mixing 0.8 w/v % thiolated HA with either 0.1 or 2 w/v % of the crosslinker PEG-diacrylate (PEGDA), which was pre-mixed with 5 μg/mL thiolated anti-CD3 and anti-CD28 antibodies, and either no protein, 100 μM cyclic RGD, or 20 μg/mL laminin was added. Isolated murine CD8+ T cells were added to the surface of the aLNs. On day 7 viable cells were harvested, counted, and stained for phenotypic markers for flow cytometry (CD8, CD44, CD62L). For in vivo experiments, B6 mice received subcutaneous injection of aLN treatment (no protein, 570 Pa, with antigen-specific stimulation from KbSIY for 2C CD8+ T cells) or PBS. 2C CD8+ T cells were isolated, labeled with CellTrace CFSE dye and injected retro-orbitally on the same day. On days 3 and 6, blood samples were taken for CFSE division analysis via flow cytometry.

## Cc1ccc2c(c1)C(=O)C1(O)CCN(c3ccccc3)C1=N2 (centres unmarked) [blebbistatin]
[1]
  CD8+ T cell expansion in the presence of the inhibitor: abolished

## CCRRGDWLC (SEQ ID NO: 1) (also: cyclic (mode not given here)) [cyclic RGD cell-adhesive peptide attached to aTM / aLN]
[2]
  effect of cell-adhesive ligands on stimulation of antigen-specific PMEL CD8+ T cells: further increased T cell proliferation
[3]; 570-Pa aLN, day 7
  percent memory T cells: increased
[3]; attached to softer aLNs
  total expansion compared to no protein and laminin: nearly doubled total expansion

## laminin
[3]; 570-Pa aLN, day 7
  percent activated T cells: increased
